Source: PubChem BioAssay (NCI)
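Protocol summary: plate cells (96-well), add compound at 5 concentrations, incubate 48 h, interpolate endpoints linearly. TGI: total growth inhibition.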 Where a SMILES comes first, the peptide text is derived from it. [ ]: non-standard residue; d: D form. The star is where a group is joined. hSer = N[CH](CCO)C(=O)O; Boc = CC(C)(C)OC(=O)*

Experiments:
Experiment in all cases: NCI anticancer screen, dose series, 48 h
[1] = test system: 786-0 renal
[2] = test system: A498 renal
[3] = test system: A549 NSCLC
[4] = test system: ACHN renal
[5] = test system: BT-549 breast
[6] = test system: CAKI-1 renal
[7] = test system: COLO 205 colon
[8] = test system: DU-145 prostate
[9] = test system: EKVX NSCLC
[10] = test system: HCC-2998 colon
[11] = test system: HCT-116 colon
[12] = test system: HCT-15 colon
[13] = test system: HOP-62 NSCLC
[14] = test system: HOP-92 NSCLC
[15] = test system: HS 578T breast
[16] = test system: HT29 colon
[17] = test system: IGROV1 ovarian
[18] = test system: K-562 leukemia
[19] = test system: KM12 colon
[20] = test system: LOX IMVI melanoma
[21] = test system: M14 melanoma
[22] = test system: MALME-3M melanoma
[23] = test system: MCF7 breast
[24] = test system: MDA-MB-231 breast
[25] = test system: MDA-MB-435
[26] = test system: MDA-N
[27] = test system: MOLT-4 leukemia
[28] = test system: NCI-H226 lung
[29] = test system: NCI-H23 lung
[30] = test system: NCI-H460 lung
[31] = test system: NCI-H522 lung
[32] = test system: NCI/ADR-RES ovarian
[33] = test system: OVCAR-3 ovarian
[34] = test system: OVCAR-4 ovarian
[35] = test system: OVCAR-5 ovarian
[36] = test system: OVCAR-8 ovarian
[37] = test system: PC-3 prostate
[38] = test system: RPMI-8226 leukemia
[39] = test system: RXF 393 renal
[40] = test system: SF-268 CNS
[41] = test system: SF-295 CNS
[42] = test system: SF-539 CNS
[43] = test system: SK-MEL-2 melanoma
[44] = test system: SK-MEL-28 melanoma
[45] = test system: SK-MEL-5 melanoma
[46] = test system: SK-OV-3 ovarian
[47] = test system: SN12C renal
[48] = test system: SNB-19 CNS
[49] = test system: SNB-75 CNS
[50] = test system: SR leukemia
[51] = test system: SW-620 colon
[52] = test system: T-47D breast
[53] = test system: TK-10 renal
[54] = test system: U251 CNS
[55] = test system: UACC-257 melanoma
[56] = test system: UACC-62 melanoma
[57] = test system: UO-31 renal
[58] = test system: CCRF-CEM leukemia
[59] = test system: HL-60(TB) leukemia

COc1ccc(CN2C(=O)CCC/C=C\[C@H]2CI)cc1
TGI [1]: 27 µM
TGI [2]: 25 µM
TGI [3]: 21.5 µM
TGI [4]: 27.3 µM
TGI [5]: 33.7 µM
TGI [6]: 21.9 µM
TGI [7]: 26.9 µM
TGI [8]: 26 µM
TGI [9]: 22.5 µM
TGI [10]: 23.8 µM
TGI [11]: 24 µM
TGI [12]: 24.9 µM
TGI [13]: 31.1 µM
TGI [14]: 25.3 µM
TGI [15]: 33.2 µM
TGI [16]: 21.5 µM
TGI [17]: 29 µM
TGI [18]: > 100 µM
TGI [19]: 23 µM
TGI [20]: 34 µM
TGI [21]: 22.6 µM
TGI [22]: 24.4 µM
TGI [23]: 22.5 µM
TGI [24]: 23 µM
TGI [25]: 25.2 µM
TGI [26]: 25.8 µM
TGI [27]: 25.6 µM
TGI [28]: 25.5 µM
TGI [29]: 28.7 µM
TGI [30]: 25.7 µM
TGI [31]: 26.5 µM
TGI [32]: 28.2 µM
TGI [33]: 23.7 µM
TGI [34]: 22.8 µM
TGI [35]: 24.5 µM
TGI [36]: 27.5 µM
TGI [37]: 20.7 µM
TGI [38]: 31.2 µM
TGI [39]: 17.2 µM
TGI [40]: 27.2 µM
TGI [41]: 26.3 µM
TGI [42]: 26.4 µM
TGI [43]: 23 µM
TGI [44]: 25.2 µM
TGI [45]: 25.1 µM
TGI [46]: 30 µM
TGI [47]: 27 µM
TGI [48]: 25.9 µM
TGI [49]: 17.5 µM
TGI [50]: > 100 µM
TGI [51]: 23.8 µM
TGI [52]: 6.69 µM
TGI [53]: 25 µM
TGI [54]: 26.5 µM
TGI [55]: 21.7 µM
TGI [56]: 22.6 µM
TGI [57]: 23.8 µM

COc1ccc(C(=O)C2CC3(CCC2(O)c2ccc(OC)cc2)CC(=O)Nc2ccccc2C3=O)cc1 (stereo not drawn)
TGI [2]: > 100 µM
TGI [3]: > 100 µM
TGI [5]: > 100 µM
TGI [6]: > 100 µM
TGI [58]: > 100 µM
TGI [7]: > 100 µM
TGI [8]: > 100 µM
TGI [9]: > 100 µM
TGI [10]: > 100 µM
TGI [11]: > 100 µM
TGI [12]: > 100 µM
TGI [59]: > 100 µM
TGI [13]: > 100 µM
TGI [14]: > 100 µM
TGI [15]: > 100 µM
TGI [16]: > 100 µM
TGI [17]: > 100 µM
TGI [18]: > 100 µM
TGI [20]: > 100 µM
TGI [21]: > 100 µM
TGI [22]: > 100 µM
TGI [23]: > 100 µM
TGI [24]: > 100 µM
TGI [25]: > 100 µM
TGI [26]: > 100 µM
TGI [28]: > 100 µM
TGI [29]: > 100 µM
TGI [30]: > 100 µM
TGI [32]: > 100 µM
TGI [33]: > 100 µM
TGI [34]: 39.9 µM
TGI [35]: > 100 µM
TGI [36]: > 100 µM
TGI [37]: > 100 µM
TGI [39]: > 100 µM
TGI [40]: > 100 µM
TGI [41]: > 100 µM
TGI [42]: > 100 µM
TGI [43]: > 100 µM
TGI [45]: > 100 µM
TGI [46]: > 100 µM
TGI [47]: > 100 µM
TGI [49]: > 100 µM
TGI [50]: > 100 µM
TGI [51]: > 100 µM
TGI [52]: > 100 µM
TGI [53]: > 100 µM
TGI [54]: > 100 µM
TGI [55]: > 100 µM
TGI [56]: > 100 µM
TGI [57]: > 100 µM

COc1ccc2nc3ccc(OC)cc3c(S(=O)Cc3ccc([N+](=O)[O-])cc3)c2c1 (stereo not drawn)
TGI [1]: 4.26 µM
TGI [2]: 36.3 µM
TGI [3]: > 58 µM
TGI [4]: 11.2 µM
TGI [5]: 33.4 µM
TGI [6]: 28.6 µM
TGI [58]: > 21.9 µM
TGI [7]: 15.9 µM
TGI [8]: 6.59 µM
TGI [9]: 32.5 µM
TGI [10]: 34 µM
TGI [11]: 3.12 µM
TGI [12]: 10.5 µM
TGI [59]: 6.97 µM
TGI [13]: 30.7 µM
TGI [14]: > 23.5 µM
TGI [15]: 25.9 µM
TGI [16]: 6.33 µM
TGI [17]: 11.1 µM
TGI [18]: > 100 µM
TGI [19]: 42 µM
TGI [20]: 34.7 µM
TGI [21]: 30.6 µM
TGI [22]: 5.18 µM
TGI [23]: 4.26 µM
TGI [24]: 29.9 µM
TGI [25]: 26 µM
TGI [26]: 29.7 µM
TGI [27]: > 23.2 µM
TGI [28]: 45.6 µM
TGI [29]: 25.1 µM
TGI [30]: 67.4 µM
TGI [31]: 3.37 µM
TGI [32]: 62.3 µM
TGI [33]: 14.2 µM
TGI [34]: 23.7 µM
TGI [35]: 34.5 µM
TGI [36]: 13.1 µM
TGI [37]: 27.6 µM
TGI [38]: 7.7 µM
TGI [39]: 28.6 µM
TGI [40]: 47.5 µM
TGI [41]: 41.8 µM
TGI [42]: 7.25 µM
TGI [43]: 34.9 µM
TGI [44]: 15.7 µM
TGI [45]: 31.8 µM
TGI [46]: 40.1 µM
TGI [47]: 9.94 µM
TGI [48]: 52.3 µM
TGI [49]: 35.9 µM
TGI [50]: > 33.6 µM
TGI [52]: 4.34 µM
TGI [53]: 10.4 µM
TGI [54]: > 55.2 µM
TGI [55]: 11.4 µM
TGI [56]: 29.5 µM
TGI [57]: 12.9 µM

COCCC(NC(=O)C(CC(C)C)NC(=O)OC(C)(C)C)C(N)=O (stereo not drawn) (Boc-Leu-[hSer](Me)-NH2; configuration not given here)
TGI [1]: > 100 µM
TGI [2]: > 100 µM
TGI [3]: > 100 µM
TGI [4]: > 100 µM
TGI [5]: > 100 µM
TGI [6]: > 100 µM
TGI [58]: > 100 µM
TGI [7]: > 100 µM
TGI [8]: > 100 µM
TGI [9]: > 100 µM
TGI [10]: > 100 µM
TGI [11]: > 100 µM
TGI [12]: > 100 µM
TGI [59]: > 100 µM
TGI [13]: > 100 µM
TGI [14]: > 100 µM
TGI [15]: > 100 µM
TGI [16]: > 100 µM
TGI [17]: > 100 µM
TGI [18]: > 100 µM
TGI [19]: > 100 µM
TGI [20]: > 100 µM
TGI [21]: > 100 µM
TGI [22]: > 100 µM
TGI [23]: > 100 µM
TGI [24]: > 100 µM
TGI [25]: > 100 µM
TGI [26]: > 100 µM
TGI [27]: > 100 µM
TGI [28]: > 100 µM
TGI [30]: > 100 µM
TGI [31]: > 100 µM
TGI [32]: > 100 µM
TGI [33]: > 100 µM
TGI [34]: > 100 µM
TGI [36]: > 100 µM
TGI [37]: > 100 µM
TGI [38]: > 100 µM
TGI [39]: > 100 µM
TGI [40]: > 100 µM
TGI [41]: > 100 µM
TGI [42]: > 100 µM
TGI [43]: > 100 µM
TGI [44]: > 100 µM
TGI [45]: > 100 µM
TGI [46]: > 100 µM
TGI [47]: > 100 µM
TGI [48]: > 100 µM
TGI [49]: > 100 µM
TGI [50]: > 100 µM
TGI [51]: > 100 µM
TGI [52]: > 100 µM
TGI [53]: > 100 µM
TGI [54]: > 100 µM
TGI [55]: > 100 µM
TGI [56]: > 100 µM
TGI [57]: > 100 µM
